Tests used:
Format in all cases: in vivo, Caenorhabditis elegans
[1] = test system: lysosomal genes, sqst-1/p62; assay: Expression of lysosomal and autophagy genes (qPCR) upon GlcNAc treatment
Protocol: (§1) N-acetylglucosamine (GlcNAc) (Sigma) was dissolved in distilled water to prepare 1 M as stock solution. The stock solution was diluted with LB liquid medium. The L4-stage worms of each transgenic line were transferred to NGM plates containing a final concentration of 10 mM GlcNAc.
Adult transgenic worms derived from daf-16(mu86) mutants with or without hlh-30p::hlh-30 expression were collected, and washed in M9 buffer. The worms in the buffer were sonicated and the samples were subjected to several freeze-thaw cycles using liquid nitrogen. RNA was extracted with Trizol (Invitrogen, Carlsbad, Calif.) and purified using the RNeasy kit (Qiagen, Valencia, Calif., USA). Each cDNA was synthesized from 500 ng of total RNA using the iScript cDNA synthesis kit (Bio-Rad, Hercules, Calif.). For real-time PCR, target genes and specific primers were mixed with SYBR Premix Ex Taq II (Takara, Shiga, Japan) in 96-well plates. Specific primers previously designed by other group were used (Lapierre, L. R., et al. (2013). The TFEB orthologue HLH-30 regulates autophagy and modulates longevity in Caenorhabditis elegans. Nat. Commun 4, 2267). The DNA products were analyzed using the 7500 Real-Time PCR system (Applied Biosystems, Foster City, Calif.). […]

[2] = test system: V1S+SV2 and daf-16(mu86); V1S+SV2 animals; assay: Nerve degeneration in C. elegans BiFC model with GlcNAc treatment; details: 10 mM GlcNAc, both V1S+SV2 and daf-16(mu86)
Protocol: Worms were immobilized with 10 mM sodium azide in M9 buffer, mounted on 2% agar pads, and covered with a coverslip. Images of the worms were acquired using Olympus FV1000 confocal laser scanning microscopy (Olympus, Tokyo, Japan). N-acetylglucosamine (GlcNAc) (Sigma) was dissolved in distilled water to prepare 1 M as stock solution. The stock solution was diluted with LB liquid medium. The L4-stage worms of each transgenic line were transferred to NGM plates containing a final concentration of 10 mM GlcNAc. The present inventors then examined the degeneration of axonal processes from the URA motor neuron (Rogers et al., 2003). These nerves were intact in the wild-type N2 at day 8. Expression of SV2 in neurons caused neuritic bleb formation and nerve fragmentation in a small number of worms (FIGS. 23g, 23h, 23i, 23j, and 23k), indicating autonomous cellular toxicity of α-synuclein in neurons. These degenerative phenotypes were further exacerbated when […] was expressed in the pharyngeal muscle, and approximately 15% of nerves were completely lost (FIG. 23k). To verify nerve fragmentation, 3-D reconstruction of the stacked images of nerve processes was performed. […] Nerve degeneration worsened as the transgenic worms aged (FIG. 23j).

[3] = test system: asp-4(ok2693); V1S+SV2 and asp-1(tm666); V1S+SV2 worms; assay: Epistasis analysis: GlcNAc treatment of cathepsin mutant BiFC worms; details: asp-1 and asp-4 mutant transgenic animals, in contrast to V1S+SV2 worms
Text: A plasmid expressing hlh-30p::hlh-30::gfp was obtained from Dr. Malene Hansen (Sanford-Burnham Medical Research Institute, CA, USA). The plasmid hlh-30p::hlh-30 was designed to introduce codon before the GFP coding sequence using a QuickChange Site-Directed Mutagenesis Kit to inhibit GFP expression. As a control, each Pmyo-2::V1S or Pflp 21::SV2-ICR-DsRed and hlh-30p::hlh-30 were co-injected into the gonads of late L4-stage N2 worm with pRF4. The plasmids expressing Pmyo-2::V1S, Pflp-21::SV2-ICR-DsRed and hlh-30p::hlh-30 were co-injected into the gonads of late L4-stage daf-16(mu86) mutant worms with pRF4. To analyze lysosomal dysfunction, asp-4(ok2693) and asp-1(tm666) mutant worms, in which the lysosomal enzyme cathepsin gene is inactivated, were used. Pmyo-2::V1S and Pflp-21::SV2-ICR-DsRed plasmids were co-injected into the gonads of late L4-stage mutant worms with pRF4. After transgenic lines containing the introduced plasmids were obtained, three representative lines of each genotype were used for experiments
as §1

α-synuclein aggregates = assay: Dot blot and western blot of α-synuclein aggregates in transgenic worms
Protocol: N-acetylglucosamine (GlcNAc) (Sigma) was dissolved in distilled water to prepare 1 M as stock solution. The stock solution was diluted with LB liquid medium. The L4-stage worms of each transgenic line were transferred to NGM plates containing a final concentration of 10 mM GlcNAc. Adult worms were washed with M9 buffer and subsequently with PBS containing 1% Triton X-100. The worm pellet was sonicated in PBS containing 1% Triton X-100, 1% (v/v) protease inhibitor cocktail (Sigma) and centrifuged to obtain the Triton-soluble (supernatant) and insoluble (pellet) fractions. Protein concentration was measured using the BCA protein assay kit (Pierce, Rockford, USA). Protein samples (3 μg for α-synuclein expression test and 50 μg to detect polyubiquitin proteins) were loaded onto 12% SDS-PAGE gels. The primary antibodies used for western blotting were monoclonal anti-α-synuclein antibody, 274 mAb and anti-ubiquitn antibody (ab7254; Abcam, Cambridge, Mass.). Chemiluminescence detection was performed using the LAS-3000 luminescence image analyzer, (Fujifilm, Tokyo, Japan), and Multi Gauge (y3.0) software. Adult worms of each strain were washed with M9 buffer and subsequently with PBS containing 1% Triton X-100. […] Chemiluminescence detection was performed using the LAS-3000 luminescence image analyzer and Multi Gauge (v3.0) software.

[4] = test system: polyubiquitinated proteins; assay: Steady state levels of polyubiquitinated proteins (western blotting) in transgenic worms; details: transgenic animals treated with GlcNAc
Protocol: N-acetylglucosamine (GlcNAc) (Sigma) was dissolved in distilled water to prepare 1 M as stock solution. The stock solution was diluted with LB liquid medium. The L4-stage worms of each transgenic line were transferred to NGM plates containing a final concentration of 10 mM GlcNAc. Adult worms were washed with M9 buffer and subsequently with PBS containing 1% Triton X-100. The worm pellet was sonicated in PBS containing 1% Triton X-100, 1% (v/v) protease inhibitor cocktail (Sigma) and centrifuged to obtain the Triton-soluble (supernatant) and insoluble (pellet) fractions. Protein concentration was measured using the BCA protein assay kit (Pierce, Rockford, USA). Protein samples (3 μg for α-synuclein expression test and 50 μg to detect polyubiquitin proteins) were loaded onto 12% SDS-PAGE gels. The primary antibodies used for western blotting were monoclonal anti-α-synuclein antibody, 274 mAb and anti-ubiquitn antibody (ab7254; Abcam, Cambridge, Mass.). Chemiluminescence detection was performed using the LAS-3000 luminescence image analyzer, (Fujifilm, Tokyo, Japan), and Multi Gauge (y3.0) software.

[5] = test system: V1S+SV2 and daf-16(mu86); V1S+SV2 animals; assay: Life span assay with GlcNAc treatment; details: 10 mM GlcNAc, both V1S+SV2 and daf-16(mu86)
Protocol: Eggs laid by adult mother worms were synchronously grown up to the L4 larval stage on NGM plates seeded with E. coli OP50 at 20° C. The L4-stage worms were transferred to NGM plates containing 100 mM 5-fluoro-2′-deoxyuridine (Sigma) to prevent them from producing progeny. The number of worms that were alive or dead was recorded every 1-2 days.
as §1

[6] = test system: single tissue expression lines carrying V1S or SV2 alone in N2 and daf-16(mu86) mutant worms; assay: GlcNAc treatment of single tissue expression lines (V1S or SV2 alone)
Protocol: Pmyo-2::V1S and Pflp-21::SV2-ICR-DsRed plasmids were co-injected into the gonads of late L4-stage daf-2(e1370) and daf-16(mu86) mutant worms with the pRF4. As a control for aging related BiFC models, Pmyo-2::V1S or Pflp-21::SV2::ICR::DsRed alone was injected into the gonads of late L4-stage of N2 and daf-16(mu86) mutant worms with pRF4. After several transgenic lines containing the introduced plasmids were obtained, three representative lines in each mutant background were used for experiments.
Worms were immobilized with 10 mM sodium azide in M9 buffer, mounted on 2% agar pads, and covered with a coverslip. Images of the worms were acquired using Olympus FV1000 confocal laser scanning microscopy (Olympus, Tokyo, Japan).
as §1
Adult worms of each strain were washed with M9 buffer and subsequently with PBS containing 1% Triton X-100. The worm pellet was sonicated in PBS containing 1% Triton X-100, 1% (v/v) protease inhibitor cocktail. Protein samples (500 ng) were loaded onto nitrocellulose membranes, which were then dried and incubated in blocking solution. The primary antibodies used for dot blotting were the monoclonal anti-α-synuclein antibodies 274 mAb and Syn-O2, the latter of which is specific for aggregated α-synuclein. Chemiluminescence detection was performed using the LAS-3000 luminescence image analyzer and Multi Gauge (v3.0) software.

[7] = test system: V1S+SV2 and daf-16(mu86); V1S+SV2 animals; assay: BiFC-positive inclusion body formation / aggregate transmission in C. elegans BiFC model with GlcNAc treatment
Protocol: Pmyo-2::V1S and Pflp-21::SV2-ICR-DsRed plasmids were co-injected into the gonads of late L4-stage N2 worms with a selection marker, pRF4 which expresses a mutant collagen gene, rol-6(su1006) (Mello, C. C., et al. 1991. Efficient gene transfer in C. elegans: extrachromosomal maintenance and integration of transforming sequences. The EMBO J 10, 3959-3970), to prepare double transgenic line expressing the BiFC pair. As a negative control for BiFC, Pmyo-2::V1S alone was injected into N2 worms with pRF4, and Pflp-21::SV2-ICR-DsRed alone was injected into unc-119(ed3) mutant worms with a selection marker, pCFJ151, which expresses unc-119(+) gene (Frokjaer-Jensen, et al. 2008. Single-copy insertion of transgenes in Caenorhabditis elegans. Nat. Genet 40, 1375-1383). The plasmid Pmyo-2::V1 was prepared to express the BiFC partial sequence only by introducing the stop codon right before the α-synuclein coding sequence in Pmyo-2::V1S and was prepared using a QuickChange Site-Directed Mutagenesis Kit (Stratagene, La Jolla, Calif.). Pmyo-2::V1 and Pflp-21::SV2-ICR-DsRed plasmids were then co-injected into N2 with pRF4. In addition, Pflp-21::DsRed was injected into N2 with pRF4 as a control for the effects of general protein overexpression in neurons. For chromosomal integration of the introduced plasmids, injected lines were exposed to UV irradiation. […]

[8] = test system: V1S+SV2 and daf-16(mu86); V1S+SV2 animals; assay: Pharyngeal pumping analysis with GlcNAc treatment; details: 10 mM GlcNAc, both V1S+SV2 and daf-16(mu86)
Protocol: as §1, with “Pharyngeal pumping was counted for 1 min at RT using a fluorescence microscope. 25 worms from each strain were analyzed. The data were expressed as PPM (Pumps Per Minute). N-acetylglucosamine” for “N-acetylglucosamine”

CC(=O)N[C@H]1C(O)O[C@H](CO)[C@@H](O)[C@@H]1O (stereo partly drawn) [GlcNAc, N-acetylglucosamine]
expression of lysosomal genes and autophagy gene sqst-1/p62 [1]: increased
phenotypes for nerve degeneration [2]: significantly alleviated
aging-related phenotypes [3]: not rescued
levels of high molecular weight (HM) α-synuclein aggregates (α-synuclein aggregates; Triton-insoluble (Tx-insol) fraction of transgenic worms, western blot): significantly decreased
β-sheet-rich α-synuclein aggregates (α-synuclein aggregates; dot blot with Syn-02 antibody, transgenic worms): reduced
levels of polyubiquitinated proteins [4]: decreased
life span [5]: significantly alleviated
life span ([5]; listed as N-acetylglucosamine): extended
pathogenic phenotypes (nerve degeneration, pumping behavior, life span) ([6]; V1S or SV2 alone in N2 and daf-16(mu86), versus untreated animals): did not exhibit significant changes
expression levels of α-synuclein ([6]; dot blot, GlcNAc treatment): not changed
neuronal expression of flp-21 promoter (Ds-Red) ([6]; with or without GlcNAc treatment): strictly confined in neuronal cells
formation of BiFC-positive inclusion bodies ([7]; 10 mM GlcNAc from L4-stage, both V1S+SV2 and daf-16(mu86), V1S+SV2 animals): reduced
transmission of α-synuclein aggregates ([7]; BiFC experimental animal model): inhibiting
pumping behavior [8]: significantly alleviated
pumping behavior ([8]; listed as N-acetylglucosamine): increased

Source: patent publication US9757402B2, “Method for measuring cell-to-cell transmission of α-synuclein aggregates using bimolecular fluorescence complementation system and method for screening a substance for preventing or treating neurodegenerative disease using the same” (KONKUK UNIVERSITY INDUSTRIAL COOPERATION CORP, priority 2014, dated 2017)
